{"source": "patent US20260193647A1", "about": "“MIRNA-BASED CANCER THERAPY WITH A TUMOR-NAVIGATING PEPTIDE” (The Board of Trustees of the Universities of Illinois, priority 2022, published 2026)", "key": {"miR-20a": {"system": "miR-20a", "test": "miR-20a expression levels by stem loop qPCR in treated cells", "type": "cell-based, human", "conditions": "10 nM, 24 hr", "text": "Micro RNA enriched fraction was extracted using the miRNeasy Mini Kit (Qiagen, Catalog #217004) following the manufacturer's instructions. Stem loop real-time qPCR was used to analyze miRNA expression. We designed miR-20a stem loop RT primers and amplification primers according to a previously described method 79. cDNA was synthesized from extracted RNA using unique stem loop RT primers. The sequence of the stem loop primer for miR-20a was 5′-[…]-3′ (SEQ ID NO:7). Reverse transcriptase reactions contained the following reagents: 10 ng of RNA sample, 60 nM stem-loop RT primer, 1×RT buffer, 0.25 mM dNTP, and 4 U/μl reverse transcriptase. Reactions were performed by incubation at 16° C. for 30 min, 42° C. for 30 min and 85° C. for 5 min. Real-time PCR (7300 Real time PCR Systems, Applied Biosystems, CA) was performed using the specific forward primer for miR-20a (5′-[…]-3′ (SEQ ID NO:8)) and a universal reverse primer (5′-GTGCA GGGTC CGAGGT-3′ (SEQ ID NO:9)). The 20-μl PCR mixture included 1×SYBR Premix (Invitrogen), 2 μl of RT products and each forward and reverse primer at 10 nM. Reactions were performed by incubation in a 96-well plate at 95° C. for 30 sec, followed by 35 cycles of 95° C. for 30 sec and 60° C. for 30 sec. U6 was used as an internal control to normalize the level of target miRNAs. The results were verified by performing PCR using M13 modified forward and reverse primers specific to stem loop sequence. The PCR products were visualized in 2% agarose gels and DNA-sequence was confirmed. Human tumor and serum samples were obtained from patients who had signed informed consent and the institutional review board approval was obtained in Pediatric Brain Tumor Consortium (PBTC-041) participating sites."}, "[1]": {"system": "SJ-GBM2 cells, CHLA-200 cells and astrocytes", "test": "Cellular entry by confocal microscopy", "type": "cell-based, human", "conditions": "20 μM Alexa Fluor labeled, 2 hr, 37° C.; pGBM cells vs normal astrocytes", "experimental": "p28 or AmiR20-p28 were dissolved in PBS mixed with Alexa Fluor 568 dye (Invitrogen) at a 1:2 peptide/dye ratio 37. Sodium bicarbonate (pH 8.5) was added and incubated at 4° C. with continuous stirring. Alexa Fluor 568 labeled p28 and AmiR20-p28 were dialyzed against cold-PBS using Slide-A-Lyzer Dialysis Cassettes (Pierce Biotechnology). Similarly, p28 was labeled with ICG as described previously.\nSJ-GBM2 cells, CHLA-200 cells and astrocytes (2×10^4 cells/well) were cultured on glass slides placed in 24-well plates. After overnight culture, the cells were washed with PBS and incubated with 20 μM Alexa Fluor 568-labeled p28 peptide in medium (5% FBS and without phenol red) for 2 hr at 37° C. Cells were fixed with 2% formalin for 10 min. After washing, slides were prepared and mounted with Vectashield with DAPI (Vector Laboratories, Catalog #94010). Slides were examined by an LSM 710 confocal laser scanning microscope (Zeiss). Images were processed using ZEN software (ZEISS ZEN Lite). As for a GSC marker, the slides were first incubated with Alexa Fluor 568-labeled AmiR20-p28 for 2 hr at 37° C. Cells were fixed with 2% formalin for 10 min. After washing, slides were incubated with blocking buffer for 1 hr at room temperature, followed by consecutive staining with anti-CD133 antibody (1:500, R&D Systems FAB11331G). Slides were washed and mounted with Vectashield containing DAPI. […]"}, "normal human astrocytes": {"system": "normal human astrocytes", "test": "CCK-8 cell viability assay, normal human astrocytes", "type": "cell-based", "conditions": "24 hr", "description": "(§1) Cell viability was evaluated by a CCK-8 assay (Dojindo, Japan). Cells were seeded at a density of 4,000 cells per well in 100 μl of growth medium in 96-well plates and grown overnight. Then, the cells were exposed to antisense miR-20a alone, p28 alone or negative control or AmiR20-p28 over a range of concentrations and incubated for 24 hr. According to the manufacturer's instructions, 10 μl of CCK-8 solution was added to each well, followed by incubation for 1 hr at 37° C. The absorbance at 450 nm was determined by a multiplate reader.\n(§2) Cell viability (%)=Abs(sample)−Abs(blank)/Abs(no treatment)−Abs(blank)×100"}, "SJ-GBM2 cells": {"system": "SJ-GBM2 cells", "conditions": "read-out: IC50 (cell viability); 24 hr", "description": "as §1, §2"}, "astrocytes": {"system": "astrocytes", "test": "Annexin V/PI flow cytometric apoptosis assay, astrocytes", "type": "cell-based, human", "conditions": "10 nM, 24 h", "experimental": "Cells were seeded into 10-cm dishes and cultured overnight. Then, the cells were treated with 10 nM antisense miR-20a alone, p28 alone or AmiR20-p28 for 24 hr. Cells were washed with 1×PBS, detached with TrypleE (Invitrogen). and collected by centrifugation. Cells were washed and resuspended with 1× Annexin binding buffer (Life Technologies, catalog #V13242), and the cell density was maintained at 10^6 cells/ml. Subsequently, 5 μl of Annexin-V was added to 100 μl of the cell suspension, and the mixture was incubated for 15 min at room temperature. The cells were washed and incubated with 5 μl of PI for an additional 15 min on ice, washed and resuspended in 200 μl of buffer. Cells without treatment were used as controls. After washing, cells were subjected to flow cytometry (Gallios flow cytometer) and analyzed with Kaluza software to give the proportions of dead (top left quadrant), late apoptotic (top right quadrant), early apoptotic (bottom right quadrant) and viable (bottom left quadrant) cells."}, "[2]": {"system": "MDA-MB231, SKOV3, Mia-Paca2, Colon 205 and DU145 cells", "test": "CCK-8 cell viability assay, other solid tumor cells", "type": "cell-based, human", "conditions": "10 nM", "description": "as §1"}, "[3]": {"system": "genes associated with the EGFR, p53 and TGF pathways", "test": "qPCR of downstream targets of miR-20a", "type": "cell-based, human", "conditions": "10 nM, 24 hr"}}}
{"substance": "AmiR20-p28: BBB-permeable tumor-navigating CPP p28 (Cys-p28) covalently linked to 2′ O-methyl antisense miR-20a (5′-maleimide)", "values": [{"measurement": "miR-20a expression levels reduced by", "setting": "miR-20a; CHLA-200 cells", "value": 96, "unit": "%"}, {"measurement": "miR-20a expression levels reduced by", "setting": "miR-20a; LN-229 cells", "value": 84, "unit": "%"}, {"measurement": "miR-20a expression levels reduced by", "setting": "miR-20a; SJ-GBM2 cells", "value": 94, "unit": "%"}, {"measurement": "miR-20a levels", "setting": "miR-20a; normal human astrocytes", "value": "not significantly altered"}, {"measurement": "cellular entry (confocal images)", "setting": "[1]", "value": "preferential entry"}, {"measurement": "effect on cell viability", "setting": "normal human astrocytes", "value": "negligible"}, {"measurement": "IC50", "setting": "SJ-GBM2 cells", "value": 8, "unit": "nM"}, {"measurement": "apoptotic cells after treatment", "setting": "astrocytes", "value": 0.5, "unit": "%"}, {"measurement": "effect on the viability", "setting": "[2]", "value": "little effect on the viability"}, {"measurement": "EGFR expression levels", "setting": "[3]; LN-229 cells", "value": "decreased EGFR expression levels"}, {"measurement": "expression of p53, p21, Bax and E2F", "setting": "[3]; LN-229 cells", "value": "significantly increased"}, {"measurement": "expression levels of EGFR, Ras, MEK1, ERK1, c-Fos, c-Jun, β-catenin, TCF-1 and Lef1 genes", "setting": "[3]; SJ-GBM2 and CHLA-200 cells", "value": "significantly decreased"}, {"measurement": "expressions of p53, p21, Bax, and E2F", "setting": "[3]; SJ-GBM2 and CHLA-200 cells", "value": "robust increase"}, {"measurement": "gene expression levels", "setting": "[3]; normal human astrocytes", "value": "no significant effect on gene expression levels"}]}
